Laboratory results reported in patent publication US5580865A, “2,2-disubstituted cephem sulphones” (Farmitalia Carlo Erba S.r.l., priority 1992, dated 1996).

Target: T1, human leukocyte elastase (HLE) (Homo sapiens, UniProt P08246)
T1 construct: purchased Calbiochem
T1 sequence (P08246 30-247 limits assumed): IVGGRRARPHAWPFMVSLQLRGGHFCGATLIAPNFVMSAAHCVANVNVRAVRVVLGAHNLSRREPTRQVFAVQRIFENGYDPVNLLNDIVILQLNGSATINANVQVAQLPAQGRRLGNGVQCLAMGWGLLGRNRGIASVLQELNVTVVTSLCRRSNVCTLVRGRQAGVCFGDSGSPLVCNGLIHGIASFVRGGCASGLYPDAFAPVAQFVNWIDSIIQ
Assay: Kinetic parameters of HLE inhibition (fluorogenic substrate, steady-state KI^ss and K5/KI)
Format: biochemical
Settings: HLE (Calbiochem), 37° C., pH 7.4 phosphate buffer, 1% DMSO, 1% MeCN; for kinact/KI: read-out: K5 /KI (rate of formation of the HLE-inhibitor complex); for Ki: read-out: KI^ss (apparent dissociation constant of the HLE-inhibitor complex at steady state)
Protocol: Kinetic parameters of HLE (Calbiochem) were determined at 37° C., 0.027M pH 7.4 phosphate buffer, 1% DMSO, 1% MeCN, NaCl (I=0.15), by monitoring the release of 7-amino-4-methylcoumarin (fluorescence detection) from N-methoxysuccinyl-alanyl-prolyl-valyl-7-amido-4-methylcoumarin as the substrate, according to the equations: [formula] wherein [P], [I], [S]=product, inhibitor, and substrate concentration
Km =Michaelis constant for the enzyme substrate pair (independently determined under the same experimental conditions)

SMILES | kinact/KI [M⁻¹ s⁻¹] | Ki [nM]
CO[C@H]1C(=O)N2C(C(=O)C(C)(C)C)=C(C)C(Cc3ccccc3)(Sc3nnnn3C)S(=O)(=O)[C@H]12 (stereo partly drawn) [Compound 10, 2-Benzyl-4-tert-butylcarbonyl-7α-methoxy-3-methyl-2-(1-methyl-1,2,3,4-tetrazol-5-yl)thio-3-cephem 1,1-dioxide] | 110000 | 4
CO[C@H]1C(=O)N2C(C(=O)C(C)(C)C)=C(C)C(C)(Sc3nc(=O)c(O)nn3C)S(=O)(=O)[C@H]12 (stereo partly drawn) [Compound 12, 2-(2,5-Dihydro-6-hydroxy-2-methyl-5-oxo-1,2,4-triazin-3-yl)thio-4-tert-butylcarbonyl-2,3-dimethyl-7α-methoxy-3-cephem 1,1-dioxide] | 37000 | 30
CO[C@H]1C(=O)N2C(C(=O)C(C)(C)C)=C(C)C(Cc3ccccc3)(Sc3nc(=O)c(O)nn3C)S(=O)(=O)[C@H]12 (stereo partly drawn) [Compound 18, 2-Benzyl-2-(2,5-dihydro-6-hydroxy-2-methyl-5-oxo-1,2,4-triazin-3-yl)thio-4-tert-butylcarbonyl-7α-methoxy-3-methyl-3-cephem 1,1-dioxide] | 14000 | 16
CO[C@H]1C(=O)N2C(C(=O)C(C)(C)C)=C(C)C(C)(Sc3nnnn3C)S(=O)(=O)[C@H]12 (stereo partly drawn) [Compound 5, 4-tert-Butylcarbonyl-2,3-dimethyl-7α-methoxy-2-(1-methyl-1,2,3,4-tetrazol-5-yl)thio-3-cephem 1,1-dioxide] | 570000 | 1.9
COc1nn(C)c(SC2(C)C(C)=C(C(=O)C(C)(C)C)N3C(=O)[C@H](OC)[C@H]3S2(=O)=O)nc1=O (stereo partly drawn) [Compound 15, 2-(2,5-Dihydro-6-methoxy-2-methyl-5-oxo-1,2,4-triazin-3-yl)thio-4-tert-butylcarbonyl-2,3-dimethyl-7α-methoxy-3-cephem 1,1-dioxide] | 1.4e+06 | 
CO[C@H]1C(=O)N2C(C(=O)C(C)(C)C)=C(C)C(C)(Sc3nc(=O)c(OC(c4ccccc4)c4ccccc4)nn3C)S(=O)(=O)[C@H]12 (stereo partly drawn) [Compound 11, 2-(6-Benzhydryloxy-2-methyl-5-oxo-2,5-dihydro-1,2,4-triazin-3-yl)thio-4-tert-butylcarbonyl-2,3-dimethyl-7α-methoxy-3-cephem 1,1-dioxide] | 1.3e+07 | < 1
CO[C@H]1C(=O)N2C(C(=O)C(C)(C)C)=C(C)C(Cc3ccc([N+](=O)[O-])cc3)(Sc3nnnn3C)S(=O)(=O)[C@H]12 (stereo partly drawn) [Compound 6, 4-tert-Butylcarbonyl-7α-methoxy-3-methyl-2-(1-methyl-1,2,3,4-tetrazol-5-yl)thio-2-(4-nitrobenzyl)-3-cephem 1,1-dioxide] | 600000 | 1
C=CCC1(Sc2nnnn2C)C(C)=C(C(=O)C(C)(C)C)N2C(=O)[C@H](OC)[C@H]2S1(=O)=O (stereo partly drawn) [Compound 7, 2-Allyl-4-tert-butylcarbonyl-7α-methoxy-3-methyl-2-(1-methyl-1,2,3,4-tetrazol-5-yl)thio-3-cephem 1,1-dioxide] | 360000 | 3

Second part, the compound after the results:

kinact/KI [M⁻¹ s⁻¹] | Ki [nM] | SMILES
1.4e+06 | 3 | CO[C@H]1C(=O)N2C(C(=O)C(C)(C)C)=C(CSc3nnnn3C)C(C)(Sc3nnnn3C)S(=O)(=O)[C@H]12 (stereo partly drawn) [Compound 28, 4-tert-Butylcarbonyl-7α-methoxy-2-methyl-2-(1-methyl-1,2,3,4-tetrazol-5-yl)thio-3-(1-methyl-1,2,3,4-tetrazol-5-yl)thiomethyl-3-cephem 1,1-dioxide]
1500 |  | CO[C@H]1C(=O)N2C(C(=O)N3CCCC3)=C(CSc3nc(=O)c(O)nn3C)CS(=O)(=O)[C@H]12 [Ref. 3, reference compound]
200000 | 7 | CO[C@H]1C(=O)N2C(C(=O)C(C)(C)C)=C(C)C(Cc3ccc(C(=O)O)cc3)(Sc3nnnn3C)S(=O)(=O)[C@H]12 (stereo partly drawn) [Compound 32, 4-tert-Butylcarbonyl-2-(4-carboxybenzyl)-7α-methoxy-3-methyl-2-(1-methyl-1,2,3,4-tetrazol-5-yl)thio-3-cephem 1,1-dioxide]
 | 93 | CO[C@H]1C(=O)N2C(C(=O)C(C)(C)C)=C(CSc3nnnn3C)C(Sc3nnnn3C)S(=O)(=O)C12 (some centres unmarked) [Ref. 2, reference compound]
93000 | 8 | C=CCC1(Sc2nc(=O)c(OC(c3ccccc3)c3ccccc3)nn2C)C(C)=C(C(=O)C(C)(C)C)N2C(=O)[C@H](OC)[C@H]2S1(=O)=O (stereo partly drawn) [Compound 24, 2-allyl-2-(6-benzhydryloxy-2,5-dihydro-2-methyl-5-oxo-1,2,4-triazin-3-yl)thio-4-tert-butylcarbonyl-7α-methoxy-3-methyl-3-cephem 1,1-dioxide]
160000 | 4 | CO[C@H]1C(=O)N2C(C(=O)C(C)(C)C)=C(C)C(Cc3ccccc3)(Sc3nc(=O)c(OCc4ccccc4)nn3C)S(=O)(=O)[C@H]12 (stereo partly drawn) [Compound 46, 2-Benzyl-2-(6-benzyloxy-2,5-dihydro-2-methyl-5-oxo-1,2,4-triazin-3-yl)thio-4-tert-butylcarbonyl-7α-methoxy-3-methyl-3-cephem 1,1-dioxide]
77000 | 1 | CO[C@H]1C(=O)N2C(C(=O)C(C)(C)C)=C(C)C(Cc3ccc(C(=O)OC(c4ccccc4)c4ccccc4)cc3)(Sc3nnnn3C)S(=O)(=O)[C@H]12 (stereo partly drawn) [Compound 30, 2-(4-benzhydryloxycarbonylbenzyl)-4-tert-Butylcarbonyl-7α-methoxy-3-methyl-2-(1-methyl-1,2,3,4-tetrazol-5-yl)thio-3-cephem1,1-dioxide]
560000 | 1.3 | C=CCOC(=O)c1ccc(CC2(Sc3nnnn3C)C(C)=C(C(=O)C(C)(C)C)N3C(=O)[C@H](OC)[C@H]3S2(=O)=O)cc1 (stereo partly drawn) [Compound 31, 2-(4-allyloxycarbonylbenzyl)-4-tert-butylcarbonyl-7α-methoxy-3-methyl-2-(1-methyl-1,2,3,4-tetrazol-5-yl)thio-3-cephem 1,1-dioxide]
